This note sets out measurements from ChEMBL document CHEMBL5338751, “Discovery of the First-in-Class Intestinal Restricted FXR and FABP1 Dual Modulator ZLY28 for the Treatment of Nonalcoholic Fatty Liver Disease” (J Med Chem, 2023).

As usually defined, the IC50 is the concentration needed to halve the response being measured. Broadly, the EC50 is the concentration at which the effect is half-maximal. For orientation: inhibition means the share of the control response that was lost under treatment.

Each structure is given as a SMILES string. Active and inactive are the calls of the source. No cut-off for these calls is given here.

Data set [1] is described as follows: Metabolic stability in Sprague-Dawley rat liver microsomes assessed as parent compound remaining incubated for 1 hr by LC-MS analysis. Format: ADME, Microsome. The settings on record: read-out: Stability.
The test system of data set [2] is Mus musculus. The experiment in a line: Anti-NASH activity in western diet and CCl4-induced nonalcoholic steatohepatitis C57BL/6 mouse assessed as reduction in liver weight ratio at 20 mg/kg, po administered for 12 weeks starting from week 8 and change in dose for every 5 days. The settings on record: time 4.0 weeks. Format: functional, organism-based.
Data set [3] in a line: Inhibition of PPARbeta/delta (unknown origin) transfected in HepG2 cells incubated for 18 hrs in presence of GW0742 by dual luciferase reporter assay. The settings on record: Homo sapiens, HepG2, 18 h. (In general: In a reporter assay the amount or activity of a reporter protein is the signal.)
For data set [4], the target named is T1, Bile acid receptor (Mus musculus) (UniProt Q60641).
T1 sequence (whole entry): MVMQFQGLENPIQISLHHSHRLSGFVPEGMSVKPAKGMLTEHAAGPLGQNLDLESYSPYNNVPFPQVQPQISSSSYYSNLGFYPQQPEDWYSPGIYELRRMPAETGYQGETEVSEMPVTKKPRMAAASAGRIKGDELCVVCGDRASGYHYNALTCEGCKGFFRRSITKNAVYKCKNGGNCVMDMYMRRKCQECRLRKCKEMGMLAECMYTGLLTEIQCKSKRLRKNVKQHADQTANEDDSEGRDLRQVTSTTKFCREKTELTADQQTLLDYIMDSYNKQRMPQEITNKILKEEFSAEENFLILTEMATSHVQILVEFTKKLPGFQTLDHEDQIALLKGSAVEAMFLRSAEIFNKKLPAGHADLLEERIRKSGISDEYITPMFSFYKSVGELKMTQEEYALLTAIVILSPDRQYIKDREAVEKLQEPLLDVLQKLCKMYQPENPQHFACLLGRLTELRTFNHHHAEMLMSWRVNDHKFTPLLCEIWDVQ
The experiment in a line: Activation of FXR in C57BL/6 mouse ileum assessed as upregulation of OST-beta gene expression at 20 mg/kg, po administered for 5 days and measured after 1 hr post final dose by RT-PCR analysis. Format: organism-based. The note with it: filed as activator, time 5.0 day.

A short description of data set [5]: Drug concentration in C57BL/6 mouse plasma at 20 mg/kg, po administered for 5 days and measured after 1 hr post final dose by LC-MS analysis. Format: ADME, organism-based. The settings on record: time 5 day.
Data set [6] can be described thus: Subacute toxicity in ICR mouse assessed as changes in serum ALT level at 500 mg/kg/day, po administered for 14 days. In kind it is organism-based. The note with it: in vivo, 336 h, time 14 day.
Data set [7] can be described thus: Agonist activity at PPARbeta/delta (unknown origin) transfected in HepG2 cells incubated for 18 hrs by renilla/firefly based dual-glo luciferase assay. Format: cell-based. The note with it: Homo sapiens, HepG2, 18 h.
The target of data set [8] is T2, Fatty acid-binding protein, liver (Homo sapiens) (UniProt P07148).
T2 sequence (whole entry): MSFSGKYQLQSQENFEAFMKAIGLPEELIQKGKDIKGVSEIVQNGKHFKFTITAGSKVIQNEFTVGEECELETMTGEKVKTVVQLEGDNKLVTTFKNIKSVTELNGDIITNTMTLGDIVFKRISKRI
Description: Displacement of 8-anilino-1-naphthalene-sulfonic acid from FABP1 (unknown origin) at 10 uM incubated for 3 mins by fluorescence based assay relative to control.

The target of the next data set is T3, Bile acid receptor (Homo sapiens, UniProt Q96RI1).
T3 sequence (Q96RI1 whole entry): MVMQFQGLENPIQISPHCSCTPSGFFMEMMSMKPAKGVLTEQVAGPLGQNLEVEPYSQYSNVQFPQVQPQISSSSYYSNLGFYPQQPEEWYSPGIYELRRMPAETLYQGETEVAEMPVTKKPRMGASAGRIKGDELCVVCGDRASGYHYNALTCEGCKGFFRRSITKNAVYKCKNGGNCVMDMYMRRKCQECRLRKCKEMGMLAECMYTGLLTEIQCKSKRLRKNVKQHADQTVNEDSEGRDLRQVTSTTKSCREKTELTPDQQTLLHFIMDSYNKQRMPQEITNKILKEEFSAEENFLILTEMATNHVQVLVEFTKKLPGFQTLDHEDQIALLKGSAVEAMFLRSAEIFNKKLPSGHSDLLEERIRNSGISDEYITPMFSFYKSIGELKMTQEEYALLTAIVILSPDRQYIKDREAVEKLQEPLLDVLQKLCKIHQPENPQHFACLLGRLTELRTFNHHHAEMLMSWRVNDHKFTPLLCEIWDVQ
Description: Agonist activity at FXR (unknown origin) expressed in human HepG2 cells co-transfected with human RXR assessed as luciferase activity incubated for 24 hrs by cell-based luciferase assay.

In a further data set the target is Vitamin D3 receptor (Homo sapiens, UniProt P11473). The experiment in a line: Activation of VP16-fused VDR-LBD (unknown origin) incubated for 18 hrs in presence of substrate by luciferase assay.
Sequence of Vitamin D3 receptor (P11473 whole entry, the tested form may be a part): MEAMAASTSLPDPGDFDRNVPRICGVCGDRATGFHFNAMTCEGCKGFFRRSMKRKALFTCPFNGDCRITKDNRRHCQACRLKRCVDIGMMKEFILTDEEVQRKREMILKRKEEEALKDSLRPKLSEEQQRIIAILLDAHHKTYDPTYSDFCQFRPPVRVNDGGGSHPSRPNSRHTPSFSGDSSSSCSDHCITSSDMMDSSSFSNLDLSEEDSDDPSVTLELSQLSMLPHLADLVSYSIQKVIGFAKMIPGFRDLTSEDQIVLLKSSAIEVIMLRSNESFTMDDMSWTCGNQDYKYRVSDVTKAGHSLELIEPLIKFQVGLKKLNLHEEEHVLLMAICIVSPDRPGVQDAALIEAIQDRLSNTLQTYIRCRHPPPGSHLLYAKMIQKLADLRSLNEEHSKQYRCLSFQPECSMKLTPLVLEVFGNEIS
The target in the next data set is Progesterone receptor (Homo sapiens, UniProt P06401). Description: Activation of Gal-DBD and NHRLBD fused PR (unknown origin) transfected in African green monkey CV-1 cells by luciferase reporter assay. Format: cell-based.
Sequence of Progesterone receptor (P06401 whole entry, the tested form may be a part): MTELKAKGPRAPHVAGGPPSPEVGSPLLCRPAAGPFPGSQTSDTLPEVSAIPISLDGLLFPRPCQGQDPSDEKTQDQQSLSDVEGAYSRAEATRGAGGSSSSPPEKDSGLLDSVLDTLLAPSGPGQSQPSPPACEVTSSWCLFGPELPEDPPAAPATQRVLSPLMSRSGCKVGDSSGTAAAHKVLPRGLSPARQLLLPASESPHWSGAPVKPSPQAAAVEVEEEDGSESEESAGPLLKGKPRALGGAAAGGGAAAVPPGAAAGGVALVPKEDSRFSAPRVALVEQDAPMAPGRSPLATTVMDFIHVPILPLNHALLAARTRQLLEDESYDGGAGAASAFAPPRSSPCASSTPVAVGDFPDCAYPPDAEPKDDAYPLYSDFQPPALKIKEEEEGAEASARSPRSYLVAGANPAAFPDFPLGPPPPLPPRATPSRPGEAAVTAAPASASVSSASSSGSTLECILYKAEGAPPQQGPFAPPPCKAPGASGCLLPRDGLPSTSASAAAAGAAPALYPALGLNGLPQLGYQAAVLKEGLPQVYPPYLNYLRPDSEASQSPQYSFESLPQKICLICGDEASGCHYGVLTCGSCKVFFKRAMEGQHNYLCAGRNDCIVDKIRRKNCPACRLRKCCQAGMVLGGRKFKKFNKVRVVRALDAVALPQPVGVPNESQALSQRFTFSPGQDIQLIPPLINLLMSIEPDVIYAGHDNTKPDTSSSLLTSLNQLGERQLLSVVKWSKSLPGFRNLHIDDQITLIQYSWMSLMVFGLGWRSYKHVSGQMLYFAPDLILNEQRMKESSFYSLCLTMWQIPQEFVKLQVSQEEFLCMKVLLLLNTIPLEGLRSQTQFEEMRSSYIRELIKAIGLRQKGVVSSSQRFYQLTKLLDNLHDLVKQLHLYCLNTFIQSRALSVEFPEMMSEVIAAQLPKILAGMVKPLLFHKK
Data set [9] has as its system Mus musculus. Description: Anti-NASH activity in western diet and CCl4-induced nonalcoholic steatohepatitis C57BL/6 mouse assessed as alleviation of lobular inflammation at 20 mg/kg, po administered for 12 weeks starting from week 8 and change in dose for every 5 days. In kind it is functional, organism-based. The settings on record: time 4.0 weeks.
In data set [10] the test system is Mus musculus. The experiment in a line: Antioxidant activity in western diet and CCl4-induced nonalcoholic steatohepatitis C57BL/6 mouse model assessed as increase in glutathione peroxidase level at 20 mg/kg, po administered for 12 weeks starting from week 8 and change in dose for every 5 days. Format: functional, organism-based. The settings on record: time 4.0 weeks.

For data set [11], the system named is Mus musculus. The experiment in a line: In vivo inhibition of FABP1 in western diet and CCl4-induced nonalcoholic steatohepatitis C57BL/6 mouse assessed as increase in excretion of NEFA in fecal at 20 mg/kg, po administered for 12 weeks starting from week 8 and change in dose for every 5 days. Format: functional, organism-based. The settings on record: time 4.0 weeks.

Data set [12] can be described thus: Subacute toxicity in ICR mouse assessed as changes in serum DBIL level at 500 mg/kg/day, po administered for 14 days. The settings on record: in vivo, 336 h, time 14 day. Format: organism-based.
The subject of data set [13] is Mus musculus. The experiment in a line: Anti-NASH activity in western diet and CCl4-induced nonalcoholic steatohepatitis C57BL/6 mouse assessed as downregulation of TNFalpha expression level at 20 mg/kg, po administered for 12 weeks starting from week 8 and change in dose for every 5 days by ELISA. Format: functional, organism-based. The note with it: time 4.0 weeks. A general note: An ELISA detects its analyte on a solid surface through an enzyme-linked reagent.

Data set [14] can be described thus: Subacute toxicity in ICR mouse assessed as changes in body weight at 500 mg/kg/day, po administered for 14 days. Format: organism-based. The note with it: in vivo, 336 h, time 14 day.
A short description of data set [15]: Activation of Gal-DBD and NHRLBD fused RXRalpha (unknown origin) transfected in African green monkey CV-1 cells by luciferase reporter assay. Format: cell-based. The settings on record: Homo sapiens.
Data set [16] relates to Mus musculus. The experiment in a line: Anti-NASH activity in western diet and CCl4-induced nonalcoholic steatohepatitis C57BL/6 mouse assessed as alleviation of hepatic steatosis at 20 mg/kg, po administered for 12 weeks starting from week 8 and change in dose for every 5 days. Format: functional, organism-based. The note with it: time 4.0 weeks.
Another data set has as its target Estrogen receptor beta (Homo sapiens, UniProt Q92731). Description: Activation of Gal-DBD and NHRLBD fused ERbeta (unknown origin) transfected in African green monkey CV-1 cells by luciferase reporter assay. In kind it is cell-based.
Data set [17] deals with Mineralocorticoid receptor (Homo sapiens, UniProt P08235). The experiment in a line: Activation of Gal-DBD and NHRLBD fused MR (unknown origin) transfected in African green monkey CV-1 cells by luciferase reporter assay. Format: cell-based.
Sequence of Mineralocorticoid receptor (P08235 whole entry, the tested form may be a part): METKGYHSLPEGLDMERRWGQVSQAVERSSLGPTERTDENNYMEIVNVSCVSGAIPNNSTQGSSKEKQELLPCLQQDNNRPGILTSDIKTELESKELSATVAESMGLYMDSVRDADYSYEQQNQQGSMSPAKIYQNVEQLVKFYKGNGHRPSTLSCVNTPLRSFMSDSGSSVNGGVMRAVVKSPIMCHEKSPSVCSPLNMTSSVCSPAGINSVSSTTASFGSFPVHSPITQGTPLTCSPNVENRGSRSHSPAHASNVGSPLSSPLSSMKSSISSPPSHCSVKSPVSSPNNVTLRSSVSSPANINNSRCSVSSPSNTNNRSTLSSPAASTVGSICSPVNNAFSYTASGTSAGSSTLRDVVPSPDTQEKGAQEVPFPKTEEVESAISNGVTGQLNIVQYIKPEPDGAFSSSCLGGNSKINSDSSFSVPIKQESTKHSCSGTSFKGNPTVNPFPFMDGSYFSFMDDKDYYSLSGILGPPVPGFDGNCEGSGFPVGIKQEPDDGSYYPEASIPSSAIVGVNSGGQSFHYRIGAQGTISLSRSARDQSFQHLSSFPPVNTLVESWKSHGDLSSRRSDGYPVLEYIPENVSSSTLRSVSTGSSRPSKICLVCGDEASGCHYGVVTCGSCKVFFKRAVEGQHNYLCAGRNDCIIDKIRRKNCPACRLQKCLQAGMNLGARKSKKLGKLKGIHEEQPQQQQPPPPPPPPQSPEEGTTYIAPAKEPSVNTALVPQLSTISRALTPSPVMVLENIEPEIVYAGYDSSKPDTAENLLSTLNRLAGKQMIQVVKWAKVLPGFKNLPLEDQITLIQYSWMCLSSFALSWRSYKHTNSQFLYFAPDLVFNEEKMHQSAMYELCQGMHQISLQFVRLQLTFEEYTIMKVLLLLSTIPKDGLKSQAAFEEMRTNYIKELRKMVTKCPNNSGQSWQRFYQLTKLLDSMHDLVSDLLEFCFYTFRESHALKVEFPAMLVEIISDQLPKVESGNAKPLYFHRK

Sequence of Estrogen receptor beta (Q92731 whole entry, the tested form may be a part): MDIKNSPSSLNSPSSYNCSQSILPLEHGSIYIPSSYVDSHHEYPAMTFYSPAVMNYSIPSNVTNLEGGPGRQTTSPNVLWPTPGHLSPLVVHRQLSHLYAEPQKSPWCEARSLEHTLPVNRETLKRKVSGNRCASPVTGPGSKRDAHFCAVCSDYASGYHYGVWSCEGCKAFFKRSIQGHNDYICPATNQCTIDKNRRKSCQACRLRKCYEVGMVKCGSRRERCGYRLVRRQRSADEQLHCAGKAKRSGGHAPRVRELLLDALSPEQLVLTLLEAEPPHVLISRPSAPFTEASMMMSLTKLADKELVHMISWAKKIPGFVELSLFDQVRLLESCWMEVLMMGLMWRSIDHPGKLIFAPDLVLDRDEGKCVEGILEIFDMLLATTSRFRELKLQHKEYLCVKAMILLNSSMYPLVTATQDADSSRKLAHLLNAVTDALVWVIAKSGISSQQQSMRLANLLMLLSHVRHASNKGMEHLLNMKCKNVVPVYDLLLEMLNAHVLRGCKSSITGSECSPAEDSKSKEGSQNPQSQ

Take `O=C(O)C1(c2cccc(-c3ccc(OCc4c(-c5c(Cl)cccc5Cl)noc4C4CC4)cc3)c2)CC1`: the remaining at 1 h in data set [1] was determined as 68.6%. The outcome (with Mus musculus [2]; in [4]; with Mus musculus [9]; with Mus musculus [10]; in the data set on Mus musculus [11]; with Mus musculus [13]) was Active. In addition, the result with Mus musculus [16] was Active. In addition, the IC50 in data set [3] was above 10 µM. In [5], this compound came in with a concentration at 120 h of 29 ng/mL. The Activity entry in data set [6], in data set [12] and in [14] was “Non-Toxic” throughout. Moreover, the EC50 in data set [7] is above 10 µM; at Bile acid receptor, 0.491 µM; at Vitamin D3 receptor, above 10 µM; on Progesterone receptor, above 10 µM; in data set [15], above 10 µM; on Estrogen receptor beta it was above 10 µM. The compound also came in with a 50% effective concentration (EC50) in data set [17] above 10 µM. For the same compound, in data set [8], the inhibition was 83.6%.
